Experimental data published in patent US20260042764A1, “COMPOSITIONS AND METHODS FOR INHIBITION OF KRAS” (TheRas, Inc., priority 2022, published 2026).

How the values were obtained:
[1] = molecular target: T1, Avi-KRAS G12V (1-169) GppNHp/RAF1 RBD-3xFLAG (52-151) (Homo sapiens, UniProt P01116, G12V); test: Raf1-KRAS G12V-GppNHP disruption HTRF assay (Biological Example 1); format: binding
T1 construct: Avi-KRAS G12V (1-169)
Summary of the method: (§1)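 Measured with a KRAS/RAF1 HTRF assay at pH 7.5 in 10% DMSO, with two 1 h room-temperature incubations with shaking.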

[2] = molecular target: T2, Avi-KRAS WT (1-169) GppNHp/RAF1 RBD-3xFLAG (52-151) (Homo sapiens, UniProt P01116); test: Raf1-KRAS WT-GppNHP disruption HTRF assay (Biological Example 1); format: binding
T2 construct: Avi-KRAS WT (1-169)
Summary of the method: as §1

[3] = molecular target: T3, Avi-KRAS G12D (2-169) GTP/RAF1 RBD-3xFLAG (51-131) (Homo sapiens, UniProt P01116, G12D); test: Raf1-KRAS G12D-GTP disruption HTRF assay (Biological Example 3); format: binding; conditions: KRAS G12D, GTP-loaded
T3 construct: Avi-KRAS G12D (2-169)
Summary of the method: (§2)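 An HTRF assay measured disruption of 50 nM Avi-KRAS (2-169)-GTP (WT, G12C, G12D or G12V) bound to RAF1 RBD-3xFLAG (51-131). Buffer was Tris pH 7.5 with 5 mM MgCl2 and 10% DMSO. Compounds (30–0.005 μM, 3-fold, 10 points) were incubated 1 h at room temperature, and activity is given as % of DMSO.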

[4] = molecular target: T4, Avi-KRAS G12V (2-169) GTP/RAF1 RBD-3xFLAG (51-131) (Homo sapiens, UniProt P01116, G12V); test: Raf1-KRAS G12V-GTP disruption HTRF assay (Biological Example 3); format: binding; conditions: KRAS G12V, GTP-loaded
T4 construct: Avi-KRAS G12V (2-169)
Summary of the method: as §2

[5] = test system: SW620 cells (KRAS G12V); test: Cell-based pERK HTRF assay in SW620 cell (Biological Example 4)
Summary of the method: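 This assay measures inhibition of ERK phosphorylation downstream of KRAS G12V in intact SW620 cells. Compounds are applied for 4 h over nine half-log concentrations starting at 1 μM, and pERK is quantified by HTRF.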

[6] = KRAS G12V, GppNHp-loaded, class symbols
[7] = KRAS WT, GppNHp-loaded, class symbols
[8] = Homo sapiens, SW-620, SW620 (KRAS G12V) cells
[9] = Homo sapiens, SW-620, SW620 (KRAS G12V) cells, pERK HTRF, class symbols
[10] = KRAS G12V, GppNHp-loaded, Table 11
[11] = KRAS WT, GppNHp-loaded, Table 11
[12] = Homo sapiens, SW-620, SW620 (KRAS G12V) cells, pERK HTRF

T3 sequence (P01116 2-169 isoform P01116-2 G12D): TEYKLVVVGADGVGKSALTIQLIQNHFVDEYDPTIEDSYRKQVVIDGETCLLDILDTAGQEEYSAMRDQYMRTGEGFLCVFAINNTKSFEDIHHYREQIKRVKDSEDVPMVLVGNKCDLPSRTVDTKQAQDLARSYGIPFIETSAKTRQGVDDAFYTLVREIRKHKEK
T4 sequence (P01116 2-169 isoform P01116-2 G12V): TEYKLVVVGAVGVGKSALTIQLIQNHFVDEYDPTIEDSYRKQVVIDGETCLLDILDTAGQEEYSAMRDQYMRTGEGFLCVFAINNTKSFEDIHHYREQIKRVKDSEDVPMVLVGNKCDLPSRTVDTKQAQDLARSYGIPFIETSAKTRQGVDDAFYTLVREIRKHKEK
T2 sequence (P01116 1-169 isoform P01116-2): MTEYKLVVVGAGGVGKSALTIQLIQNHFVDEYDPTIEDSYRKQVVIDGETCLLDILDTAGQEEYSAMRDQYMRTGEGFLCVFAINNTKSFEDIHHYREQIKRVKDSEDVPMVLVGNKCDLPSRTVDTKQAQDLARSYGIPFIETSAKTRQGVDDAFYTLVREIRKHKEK
T1 sequence (P01116 1-169 isoform P01116-2 G12V): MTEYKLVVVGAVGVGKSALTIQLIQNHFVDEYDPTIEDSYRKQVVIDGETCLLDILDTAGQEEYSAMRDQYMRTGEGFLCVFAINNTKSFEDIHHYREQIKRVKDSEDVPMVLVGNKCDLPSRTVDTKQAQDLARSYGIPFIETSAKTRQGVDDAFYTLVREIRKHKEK

Compound	IC50 [1, 6] [nM]	IC50 [2, 7] [nM]	IC50 [3] [nM]	IC50 [4] [nM]	IC50 [5, 8] [nM]	IC50 [5, 9] [nM]	IC50 [1, 10] [nM]	IC50 [2, 11] [nM]	IC50 [5, 12] [nM]	IC50 ([1]; KRAS G12V-GppNHp/RAF1 RBD HTRF) [nM]	IC50 ([2]; KRAS WT-GppNHp/RAF1 RBD HTRF) [nM]	IC50 ([5]; SW620 (KRAS G12V) cells, pERK HTRF) [nM]	IC50 ([5]; SW620 (KRAS G12V) cells) [nM]	IC50 ([5]; SW620 (KRAS G12V) cells, pERK HTRF, class symbols) [nM]
N#Cc1c(N)sc2c(F)ccc(-c3c(C(F)(F)F)cc4c(N(C5CC5)[C@H]5CCS(=O)(=O)C5)nc(OC[C@@]56CCCN5C[C@H](F)C6)nc4c3F)c12 [Compound 702]	1000 to 10000	1000 to 10000	1000 to 10000	> 10000	100 to 1000	100 to 1000	–	–	–	–	–	–	–	–
CCN(c1nc(OC[C@@]23CCCN2C[C@H](F)C3)nc2c(F)c(-c3ccc(F)c4sc(N)c(C#N)c34)c(C(F)(F)F)cc12)[C@@H]1CC(=O)N(C2CC2)C1 (atropisomer, axis not shown) [Compound 703]	1000 to 10000	100 to 1000	1000 to 10000	1000 to 10000	–	< 100	–	–	–	–	–	–	< 100	–
CCN(c1nc(OC[C@@]23CCCN2C[C@H](F)C3)nc2c(F)c(-c3ccc(F)c4sc(N)c(C#N)c34)c(C(F)(F)F)cc12)[C@H]1C[C@H](C)N(C(=O)OC)C1 (atropisomer, axis not shown) [Compound 704]	< 100	< 100	100 to 1000	100 to 1000	< 100	< 100	–	–	–	–	–	–	–	–
CCN(c1nc(OCC23CCCN2CC(F)C3)nc2c(F)c(-c3ccc(F)c4sc(N)c(C#N)c34)c(C(F)(F)F)cc12)C1CC(C)N(C(=O)C2CC2(F)F)C1 (stereo not drawn) [Compound 732]	< 100	100 to 1000	100 to 1000	100 to 1000	–	–	–	–	–	–	–	–	< 100	< 100
Cc1c(C(=O)N2CCOCC2)nn2c1CN(c1nc(OCC34CCCN3CC(F)C4)nc3c(F)c(-c4ccc(F)c5sc(N)c(C#N)c45)c(C(F)(F)F)cc13)CC2 (stereo not drawn) [Compound 741]	100 to 1000	100 to 1000	100 to 1000	100 to 1000	< 100	< 100	–	–	–	–	–	–	–	–
CCN(c1nc(OC[C@@]23CCCN2C[C@H](F)C3)nc2c(F)c(-c3ccc(F)c4sc(N)c(C#N)c34)c(C(F)(F)F)cc12)[C@H]1C[C@@H]2CN(C)C(=O)N2C1 (atropisomer, axis not shown) [Compound 605]	100 to 1000	< 100	100 to 1000	100 to 1000	< 100	< 100	–	–	–	–	–	–	–	–
N#Cc1c(N)sc2c(F)ccc(-c3c(C(F)(F)F)cc4c(N5CC6CC(C5)O6)nc(OC[C@@]56CCCN5C[C@H](F)C6)nc4c3F)c12 (single isomer, unassigned) [Compound 275]	–	–	100 to 1000	100 to 1000	< 100	–	100 to 1000	100 to 1000	< 100	–	–	–	–	–
CN(C)C(=O)c1cc2n(n1)CCN(c1nc(OC[C@@]34CCCN3C[C@H](F)C4)nc3c(F)c(-c4ccc(F)c5sc(N)c(C#N)c45)c(C(F)(F)F)cc13)C2 [Compound 355]	–	–	100 to 1000	100 to 1000	< 100	–	–	–	< 100	100 to 1000	100 to 1000	–	–	–
CC(=O)N1CC[C@H](N(c2nc(OC[C@@]34CCCN3C[C@H](F)C4)nc3c(F)c(-c4ccc(F)c5sc(N)c(C#N)c45)c(C(F)(F)F)cc23)C2CC2)C1 (atropisomer, axis not shown) [Compound 608]	100 to 1000	100 to 1000	100 to 1000	100 to 1000	< 100	< 100	–	–	–	–	–	–	–	–

Now from value to compound:

IC50 [1, 6] [nM]	IC50 [2, 7] [nM]	IC50 [3] [nM]	IC50 [4] [nM]	IC50 [5, 8] [nM]	IC50 [5, 9] [nM]	IC50 [1, 10] [nM]	IC50 [2, 11] [nM]	IC50 [5, 12] [nM]	IC50 ([1]; KRAS G12V-GppNHp/RAF1 RBD HTRF) [nM]	IC50 ([2]; KRAS WT-GppNHp/RAF1 RBD HTRF) [nM]	IC50 ([5]; SW620 (KRAS G12V) cells, pERK HTRF) [nM]	IC50 ([5]; SW620 (KRAS G12V) cells) [nM]	IC50 ([5]; SW620 (KRAS G12V) cells, pERK HTRF, class symbols) [nM]	Compound
< 100	< 100	≤ 100	≤ 100	< 100	< 100	–	–	–	–	–	–	–	–	CCN(c1nc(OC[C@@]23CCCN2C[C@H](F)C3)nc2c(F)c(-c3ccc(F)c4sc(N)c(C#N)c34)c(C(F)(F)F)cc12)[C@H]1C[C@H]2CCC(=O)N2C1 (atropisomer, axis not shown; (aR)) [Compound 573, 2-amino-4-((S)-4-(ethyl((2S,7aR)-5-oxohexahydro-1H-pyrrolizin-2-yl)amino)-8-fluoro-2-(((2R,7aS)-2-fluorotetrahydro-1H-pyrrolizin-7a(5H)-yl)methoxy)-6-(trifluoromethyl)quinazolin-7-yl)-7-fluorobenzo[b]thiophene-3-carbonitrile]
100 to 1000	100 to 1000	≤ 100	≤ 100	< 100	< 100	–	–	–	–	–	–	–	–	CCN(c1nc(OC[C@@]23CCCN2C[C@H](F)C3)nc2c(F)c(-c3ccc(F)c4sc(N)c(C#N)c34)c(C(F)(F)F)cc12)[C@H]1CC(=O)N(CC(F)F)C1 (atropisomer, axis not shown) [Compound 613]
–	–	≤ 100	100 to 1000	< 100	–	< 100	< 100	< 100	–	–	–	–	–	CCN(c1nc(OC[C@@]23CCCN2C[C@H](F)C3)nc2c(F)c(-c3ccc(F)c4sc(N)c(C#N)c34)c(C(F)(F)F)cc12)[C@H]1CCN(C(C)=O)C1 [Compound 262]
–	–	100 to 1000	100 to 1000	< 100	–	–	–	< 100	100 to 1000	< 100	–	–	–	N#Cc1c(N)sc2c(F)ccc(-c3c(C(F)(F)F)cc4c(N5CCCC[C@@H](O)C5)nc(OC[C@@]56CCCN5C[C@H](F)C6)nc4c3F)c12 [Compound 286]
–	–	100 to 1000	100 to 1000	< 100	–	–	–	–	100 to 1000	< 100	< 100	–	–	CCN(c1nc(OC[C@@]23CCCN2C[C@H](F)C3)nc2c(F)c(-c3ccc(F)c4sc(N)c(C#N)c34)c(C(F)(F)F)cc12)[C@H]1CCN(C(=O)C(C)C)C1 [Compound 332]
< 100	< 100	≤ 100	≤ 100	< 100	< 100	–	–	–	–	–	–	–	–	CCN(c1nc(OC[C@@]23CCCN2C[C@H](F)C3)nc2c(F)c(-c3ccc(F)c4sc(N)c(C#N)c34)c(C(F)(F)F)cc12)[C@H]1CCN(C(=O)CC(F)F)C1 (atropisomer, axis not shown) [Compound 611]
–	–	100 to 1000	100 to 1000	< 100	–	–	–	< 100	100 to 1000	100 to 1000	–	–	–	CCC(=O)N1CC[C@@H](N(CC)c2nc(OC[C@@]34CCCN3C[C@H](F)C4)nc3c(F)c(-c4ccc(F)c5sc(N)c(C#N)c45)c(C(F)(F)F)cc23)C1 [Compound 327]
< 100	< 100	100 to 1000	100 to 1000	< 100	< 100	–	–	–	–	–	–	–	–	CCN(c1nc(OC[C@@]23CCCN2C[C@H](F)C3)nc2c(F)c(-c3ccc(F)c4sc(N)c(C#N)c34)c(C(F)(F)F)cc12)[C@H]1CCN(C(=O)c2ccns2)C1 (atropisomer, axis not shown) [Compound 726]
–	–	100 to 1000	100 to 1000	< 100	–	100 to 1000	< 100	< 100	–	–	–	–	–	CCN(c1nc(OC[C@@]23CCCN2C[C@H](F)C3)nc2c(F)c(-c3ccc(F)c4sc(N)c(C#N)c34)c(C(F)(F)F)cc12)[C@@H]1CCN(C(C)=O)C1 [Compound 268]
< 100	< 100	≤ 100	≤ 100	< 100	< 100	–	–	–	–	–	–	–	–	C[C@H](c1cccnc1N)N(C)c1nc(OC[C@@]23CCCN2C[C@H](F)C3)nc2c(F)c(-c3ccc(F)c4sc(N)c(C#N)c34)c(C(F)(F)F)cc12 (atropisomer, axis not shown) [Compound 600]
< 100	< 100	≤ 100	≤ 100	< 100	< 100	–	–	–	–	–	–	–	–	CCN(c1nc(OC[C@@]23CCCN2C[C@H](F)C3)nc2c(F)c(-c3ccc(F)c4sc(N)c(C#N)c34)c(C(F)(F)F)cc12)[C@H]1CCN(C(=O)O[C@@H]2CCOC2)C1 (atropisomer, axis not shown) [Compound 683]
< 100	< 100	≤ 100	100 to 1000	< 100	< 100	–	–	–	–	–	–	–	–	CC(=O)N1CC[C@H](N(CCF)c2nc(OC[C@@]34CCCN3C[C@H](F)C4)nc3c(F)c(-c4ccc(F)c5sc(N)c(C#N)c45)c(C(F)(F)F)cc23)C1 (atropisomer, axis not shown) [Compound 622]
